Assay results reported in ChEMBL document CHEMBL5325415, “Falcipains: Biochemistry, target validation and structure-activity relationship studies of inhibitors as antimalarials” (Eur J Med Chem, 2023).
Values after ≈ are worked out from the molar mass of the structure shown. Blank lines part the entries; values can stand above or below the compound they belong to. *1 amine or outer side, *2 acyl side, *3 side chain or, on linkers, in order; H or OH if unused. Where a SMILES comes first, the peptide text is derived from it. [ ]: non-standard residue; d: D form. The star is where a group is joined. hPhe = N[C@@H](CCc1ccccc1)C(=O)O; Morpholide = C1CN(*)CCO1; CO = O=C([*:1])[*:2]; CH2F = FC*

What was measured:
Falcipain 2 [1] = target: T1, Falcipain 2 (Plasmodium falciparum, UniProt Q9N6S8); assay: Inhibition of Plasmodium falciparum FP2 using ZFR-AMC as substrate preincubated with enzyme for 10 mins followed by substrate addition and measured for 30 mins by fluorimetric analysis
T1 sequence (Q9N6S8 whole entry): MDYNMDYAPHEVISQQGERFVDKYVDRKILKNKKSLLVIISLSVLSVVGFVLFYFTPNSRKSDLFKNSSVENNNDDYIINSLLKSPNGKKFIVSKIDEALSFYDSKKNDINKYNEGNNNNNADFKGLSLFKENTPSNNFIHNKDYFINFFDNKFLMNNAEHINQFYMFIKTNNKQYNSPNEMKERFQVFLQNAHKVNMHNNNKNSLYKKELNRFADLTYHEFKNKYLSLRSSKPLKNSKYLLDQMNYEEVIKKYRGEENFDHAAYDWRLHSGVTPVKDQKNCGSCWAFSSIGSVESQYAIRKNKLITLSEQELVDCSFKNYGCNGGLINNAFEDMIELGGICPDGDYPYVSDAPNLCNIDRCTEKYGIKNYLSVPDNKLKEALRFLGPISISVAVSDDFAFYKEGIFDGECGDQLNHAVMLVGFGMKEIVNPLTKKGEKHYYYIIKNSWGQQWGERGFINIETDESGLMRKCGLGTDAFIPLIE

Plasmodium falciparum [2] = assay: Antiplasmodial activity against Plasmodium falciparum 3D7 infected in human erythrocytes assessed as growth inhibition measured after 52 hrs by SYBR green dye based assay; assay type: functional, organism-based; conditions: 3D7, Erythrocyte
Falcipain 2 [3] = target: T1, Falcipain 2; assay: Inhibition of Plasmodium falciparum FP-2 using Z-Leu-Arg-AMC as substrate pretreated with enzyme for 30 mins followed by substrate addition and measured for 30 mins by spectrofluorometry
Plasmodium falciparum [4] = assay: Antimalarial activity against Chloroquine-resistant Plasmodium falciparum RKL9 infected in human erythrocytes assessed as inhibition of parasite growth incubated for 72 hrs by Giemsa staining based analysis; assay type: functional, organism-based; conditions: RKL9, Erythrocyte
Plasmodium falciparum [5] = assay: Antimalarial activity against Chloroquine-sensitive Plasmodium falciparum 3D7 infected in human erythrocytes assessed as inhibition of parasite growth incubated for 72 hrs by Giemsa staining based analysis; assay type: functional, organism-based; conditions: 3D7, Erythrocyte
Falcipain 2 [6] = target: T1, Falcipain 2; assay: Inhibition of Plasmodium falciparum Itg2 trophozite extracts FP-2 using Z-phe-Arg-AMC as substrate pretreated with enzyme for 30 mins followed by substrate addition and measured for 30 mins by spectrofluorometry
Falcipain 2 [7] = target: T1, Falcipain 2; assay: Inhibition of Plasmodium falciparum FP-2 using Z-Phe-Arg-AMC as substrate pretreated with enzyme for 10 mins followed by susbtrate addition and measured after 10 mins by fluorescence based analysis
[8] = target: T2, Falcipain 2 (Plasmodium falciparum) (UniProt Q9N6S8); assay: Inhibition of Plasmodium falciparum FP-2 using Z-Leu-Arg-AMC as substrate at 10 uM pretreated with enzyme for 30 mins followed by substrate addition and measured for 30 mins by spectrofluorometry; conditions: time 60.0 min
T2 sequence (whole entry): T1 sequence (Q9N6S8 whole entry)

Plasmodium falciparum [9] = assay: Antimalarial activity against chloroquine-resistant Plasmodium falciparum RKL9 infected in RBC measured after 24 to 30 hrs by microscopic analysis; assay type: functional, organism-based; conditions: RKL9, Erythrocyte
Falcipain 2 [10] = target: T1, Falcipain 2; assay: Inhibition of Plasmodium falciparum FP-2 using Cbz-Phe-Arg-AMC as substrate pretreated with enzyme for 10 mins followed by substrate addition and measured after 10 mins by fluorescence based analysis
Plasmodium falciparum [11] = assay: Antimalarial activity against chloroquine-sensitive Plasmodium falciparum 3D7 infected in RBC measured after 24 to 30 hrs by microscopic analysis; assay type: functional, organism-based; conditions: 3D7, Erythrocyte
Plasmodium falciparum [12] = assay: Antiplasmodial activity against Plasmodium falciparum ItG; assay type: functional, organism-based
[13] = Inhibition of Plasmodium vinckei extracts VP-2 using Z-phe-Arg-AMC as substrate pretreated with enzyme for 30 mins followed by substrate addition and measured for 30 mins by spectrofluorometry
Plasmodium falciparum [14] = assay: Antiplasmodial activity against Plasmodium falciparum D6; assay type: functional, organism-based
Plasmodium falciparum [15] = assay: Antiplasmodial activity against Plasmodium falciparum Dd2; assay type: functional, organism-based
Plasmodium falciparum [16] = assay: Antiplasmodial activity against Plasmodium falciparum W2; assay type: functional, organism-based
Plasmodium falciparum [17] = assay: Antiplasmodial activity against Plasmodium falciparum HB3; assay type: functional, organism-based
Falcipain 2 [18] = target: T1, Falcipain 2; assay: Inhibition of Plasmodium falciparum trophozite extracts FP-2

SMILES: Fc1ccc(-n2cc(COc3ccnc4cc(Cl)ccc34)nn2)c(F)c1
IC50 (Falcipain 2 [1]): 25400 nM | EC50 (Plasmodium falciparum [2]): 159000 nM

SMILES: C[C@H]1[C@H](OC(=O)c2ccc(/C=N/NC(=O)Nc3ccc(F)cc3)cc2)O[C@@H]2O[C@@]3(C)CC[C@H]4[C@H](C)CC[C@@H]1[C@@]24OO3
IC50 (Falcipain 2 [3]): 650 nM

SMILES: C[C@H]1[C@H](OC(=O)c2ccc(/C=N/NC(=O)Nc3ccccc3F)cc2)O[C@@H]2O[C@@]3(C)CC[C@H]4[C@H](C)CC[C@@H]1[C@@]24OO3
IC50 (Falcipain 2 [3]): 470 nM

SMILES: Cc1ccc(NC(=S)N/N=C/c2ccc(O[C@H]3O[C@@H]4O[C@@]5(C)CC[C@H]6[C@H](C)CC[C@@H]([C@H]3C)[C@@]46OO5)cc2)c(C)c1
IC50 (Falcipain 2 [3]): 1350 nM

SMILES: COc1ccc(/C=C(\C#N)c2nc3ccccc3[nH]2)cc1O
IC50 (Plasmodium falciparum [4]): 5460 nM | IC50 (Plasmodium falciparum [5]): 1610 nM

IC50 (Falcipain 2 [6]): 3000 nM
SMILES: COc1cc2ccnc(-c3ccc(OCc4ccccc4)cc3)c2cc1OC

SMILES: COc1cc(/C=C(\C#N)c2nc3ccccc3[nH]2)cc(OC)c1
IC50 (Plasmodium falciparum [4]): 14300 nM | IC50 (Falcipain 2 [7]): 3610 nM | IC50 (Plasmodium falciparum [5]): 1600 nM

SMILES: O=C(N[C@H](Cc1c[nH]c2ccccc12)C(=O)NCc1ccc([N+](=O)[O-])cc1)Oc1ccccc1
inhibition [8]: 49.5% | IC50 (Falcipain 2 [3]): 10000 nM

SMILES: Fc1ccc(-n2cc(COc3ccnc4cc(Cl)ccc34)nn2)cc1Cl
IC50 (Falcipain 2 [1]): 45100 nM | EC50 (Plasmodium falciparum [2]): 406000 nM

SMILES: N#C/C(=C\c1cccc(F)c1)c1nc2ccccc2[nH]1
IC50 (Plasmodium falciparum [4]): 53300 nM | IC50 (Plasmodium falciparum [5]): 22200 nM

SMILES: C[C@H]1[C@@H](Oc2ccc(/C=N/NC(=S)Nc3ccccc3F)cc2)O[C@@H]2O[C@@]3(C)CC[C@H]4[C@H](C)CC[C@@H]1[C@@]24OO3
IC50 (Falcipain 2 [3]): 2510 nM

SMILES: N#C/C(=C\c1cccc([N+](=O)[O-])c1)c1nc2ccccc2[nH]1
IC50 (Plasmodium falciparum [5]): 64800 nM

SMILES: Cc1ccc(-c2nn(-c3ccccc3)cc2/C=C/c2nnc(-c3ccc([N+](=O)[O-])cc3)o2)cc1
IC50 (Plasmodium falciparum [9]): 1.57 µg/mL (≈ 3.5 µM) | IC50 (Falcipain 2 [10]): 16000 nM | IC50 (Plasmodium falciparum [11]): 0.486 µg/mL (≈ 1.08 µM)

IC50 (Plasmodium falciparum [12]): 1.03 nM | IC50 [13]: 200 nM | IC50 (Plasmodium falciparum [14]): 1.51 nM | IC50 (Plasmodium falciparum [15]): 0.66 nM | IC50 (Plasmodium falciparum [16]): 1.2 nM | IC50 (Plasmodium falciparum [17]): 1.6 nM
SMILES: CC(C)C[C@H](NC(=O)N1CCOCC1)C(=O)N[C@H](/C=C/S(=O)(=O)c1ccccc1)CCc1ccccc1

inhibition [8]: 88.7% | IC50 (Falcipain 2 [3]): 2810 nM
SMILES: C=CCn1c(SCC(=O)Nc2sc3c(c2C(N)=O)CCC3)nc2scc(-c3ccccc3)c2c1=O

SMILES: N#C/C(=C\c1cccc(Cl)c1)c1nc2ccccc2[nH]1
IC50 (Plasmodium falciparum [5]): 24800 nM

IC50 (Falcipain 2 [1]): 26600 nM
SMILES: Cc1ccc(-n2cc(COc3ccnc4cc(Cl)ccc34)nn2)cc1
EC50 (Plasmodium falciparum [2]): 49500 nM

SMILES: CCOc1ccc(NC(=O)N/N=C/c2ccc(C(=O)O[C@@H]3O[C@@H]4O[C@@]5(C)CC[C@H]6[C@H](C)CC[C@@H]([C@H]3C)[C@@]46OO5)cc2)cc1
IC50 (Falcipain 2 [3]): 290 nM

SMILES: Cc1ccc(-c2nn(-c3ccccc3)cc2/C=C/c2nnc(-c3ccc(Cl)cc3Cl)o2)cc1
IC50 (Plasmodium falciparum [9]): 0.902 µg/mL (≈ 1.91 µM) | IC50 (Falcipain 2 [10]): 110000 nM | IC50 (Plasmodium falciparum [11]): 0.486 µg/mL (≈ 1.03 µM)

IC50 (Falcipain 2 [1]): 2140 nM
SMILES: COc1ccc(-c2cc(C(=O)N3CCN(S(=O)(=O)c4ccc(NC(C)=O)cc4)CC3)c3ccccc3n2)cc1
EC50 (Plasmodium falciparum [2]): 810 nM

SMILES: Fc1ccc(-c2nn(-c3ccccc3)cc2/C=C/c2nnc(-c3c[nH]c4ccccc34)o2)cc1
IC50 (Plasmodium falciparum [9]): 1.37 µg/mL (≈ 3.07 µM)

IC50 (Falcipain 2 [18]): 3 nM | IC50 (Plasmodium falciparum [12]): 0.51 nM | IC50 (Plasmodium falciparum [14]): 0.9 nM | IC50 (Plasmodium falciparum [15]): 0.78 nM | IC50 (Plasmodium falciparum [16]): 0.81 nM | IC50 (Plasmodium falciparum [17]): 0.66 nM
SMILES: O=C(CF)[C@H](CCc1ccccc1)NC(=O)[C@H](Cc1ccccc1)NC(=O)N1CCOCC1 ({Morpholide-CO}-Phe-[hPhe]-CH2F)

inhibition [8]: 53% | IC50 (Falcipain 2 [3]): 11800 nM
SMILES: C=CCn1c(SCC(=O)Nc2sc3c(c2C(N)=O)CCC3)nc2scc(-c3cccc([N+](=O)[O-])c3)c2c1=O

SMILES: Fc1ccccc1-n1cc(COc2ccnc3cc(Cl)ccc23)nn1
IC50 (Falcipain 2 [1]): 107000 nM | EC50 (Plasmodium falciparum [2]): 66600 nM

SMILES: Cc1ccc(-c2nn(-c3ccccc3)cc2/C=C/c2nnc(-c3ccc(Cl)cc3)o2)cc1
IC50 (Plasmodium falciparum [9]): 1.57 µg/mL (≈ 3.58 µM) | IC50 (Falcipain 2 [10]): 20000 nM | IC50 (Plasmodium falciparum [11]): 0.486 µg/mL (≈ 1.11 µM)

inhibition [8]: 82.2% | IC50 (Falcipain 2 [3]): 5770 nM
SMILES: C=CCn1c(SCC(=O)Nc2sc3c(c2C(N)=O)CCC3)nc2sc3c(c2c1=O)CCCC3
